Data on two molecules can be found in patent US4082761A, “Triazolo[4,3-a][1,4]benzodiazepinium quaternary salts” (The Upjohn Company, priority 1973, dated 1978).

Assay type in all cases: in vivo
Experiment [1] relates to mice. As to the kind of experiment: Chimney test (mice fail to back up and out of a vertical glass cylinder within 30 seconds). Conditions: Mus musculus, ip; intraperitoneal injection in mice; 50% of the mice failed to back out within 30 seconds; read-out: ED50 Ch (chimney test). From the text:
(§1) Tranquilizing effects of the compounds of this invention are shown by the following tests in mice:
Chimney test: [Med. Exp. 4, 145 (1961)]: The test determines the ability of mice to back up and out of a vertical glass cylinder within 30 seconds. At the effective dosage, 50% of the mice failed doing it.

Experiment [2] relates to mice. Kind of experiment: Dish test (mice remaining in the dish for more than 3 minutes). The note with it: Mus musculus, ip, 0.05 h; intraperitoneal injection in mice; 50% of the mice remain in the dish for more than 3 minutes; read-out: ED50 D (dish test). On the procedure:
as §1
Dish test: Mice in Petri dishes (10 cm. diameter, 5 cm. high, partially embedded in wood shavings), climb out in a very short time, when not treated. Mice remaining in the dish for more than 3 minutes indicates tranquilization. ED50 equals the dose of test compound at which 50% of the mice remain in the dish.

In experiment [3] the test system is mice. As to the kind of experiment: Pedestal test (mice stay on the pedestal for more than 1 minute). Conditions: Mus musculus, ip, 1 min, intraperitoneal injection in mice, read-out: ED50 P (pedestal test). How it is done: as §1
Pedestal test: The untreated mouse leaves a standard pedestal in less than a minute to climb back to the floor of the standard mouse box. Tranquilized mice will stay on the pedestal for more than 1 minute.

In experiment [4] the test system is mice. Kind of experiment: Nicotine antagonism test (nicotine salicylate 2 mg./kg.). The note with it: Mus musculus, ip, intraperitoneal injection in mice, nicotine salicylate 2 mg./kg. thirty minutes later. On the procedure:
as §1
Nicotine antagonism test: Mice in a group of 6 are injected with the test compound. Thirty minutes later the mice including control (untreated) mice are injected with nicotine salicylate (2 mg./kg.). The control mice show overstimulation, i.e., (1) running convulsions followed by (2) tonic extensor fits; followed by (3) death.
Ni = nicotine antagonism (2) and (3) tests.

[5] abbreviates: (2) tonic extensor fits, read-out: ED50 Ni(2) (nicotine antagonism (2) test).
[6] abbreviates: (3) death, read-out: ED50 Ni(3) (nicotine antagonism (3) test).

SMILES strings stand for the structures. Where a name gives a salt, the structure may show the parent alone.

For `C[n+]1nc([O-])n2c1CN=C(c1ccccc1Cl)c1cc(Cl)ccc1-2` [8-Chloro-6-(o-chlorophenyl)-1-hydroxy-3-methyl-4H-s-triazolo[4,3-a][1,4]benzodiazepinium hydroxide inner salt], the 50% effective dose (ED50) in experiment [1] was determined as 1.6 mg/kg; in experiment [2], 1.2 mg/kg; in experiment [3], 3.2 mg/kg; in experiment [4] (setting [5]), 0.3 mg/kg; in experiment [4] (setting [6]) it was 0.44 mg/kg.

Take `Cc1n[n+](C)c2n1-c1ccc(Cl)cc1C(c1ccccc1)=NC2` [8-Chloro-1,3-dimethyl-6-phenyl-4H-s-triazolo[4,3-a][1,4]benzodiazepinium chloride sesquihydrate]: the 50% effective dose (ED50) in experiment [1] worked out at 36 mg/kg; in experiment [2], 79 mg/kg; in experiment [3], 79 mg/kg; in experiment [4] (setting [5]), 22 mg/kg; in experiment [4] (setting [6]), 22 mg/kg.
